“And” between values parts separate entries of the source, which are not always exact repeats. Equal entries are not always repeated. Structures can show the parent of a compound that is named as a salt.
Experiments:
albino rabbits = assay: Compatibility study, topical application to the rabbit eye over 28 days (EU Directive 92/69/EEC, method B.5); assay type: in vivo; settings: 50 μl aqueous solution pH 3.0-3.5, right eye, twelve albino rabbits
Description: In a compatibility study 50 μl of a moxaverine hydrochloride-bearing aqueous solution with a pH of 3.0-3.5 was applied to the right eye of twelve albino rabbits in each case over a period of 28 days with four applications per working day and two applications per weekend day in a single dose. The left eye served in each case as a control. Evaluation of the eye reaction was effected in accordance with the Table of EU Directive 92/69/EEC, Appendix, method B.5.

[1] = Absorption of 14C-marked moxaverine into eye tissues and plasma after ocular or systemic application; settings: for Amount of active substance in the moist tissue: single experiments
[2] = ocular application, after 30 minutes, Aqueous humor
[3] = ocular application, after 30 minutes, Lens
[4] = ocular application, after 30 minutes, Plasma
[5] = ocular application, after 120 minutes, Retina
[6] = systemic application (intravenous), after 30 minutes, Aqueous humor
[7] = systemic application (intravenous), after 30 minutes, Iris/ciliary process
[8] = systemic application (intravenous), after 30 minutes, Lens
[9] = systemic application (intravenous), after 30 minutes, Plasma
[10] = systemic application (intravenous), after 30 minutes, Retina
[11] = systemic application (intravenous), after 30 minutes, Vitreous humor
[12] = systemic application (intravenous), after 120 minutes, Aqueous humor
[13] = systemic application (intravenous), after 120 minutes, Conjunctiva
[14] = systemic application (intravenous), after 120 minutes, Iris/ciliary process
[15] = systemic application (intravenous), after 120 minutes, Lens
[16] = systemic application (intravenous), after 120 minutes, Plasma
[17] = systemic application (intravenous), after 120 minutes, Retina
[18] = systemic application (intravenous), after 120 minutes, Sclera
[19] = systemic application (intravenous), after 120 minutes, Vitreous humor

SMILES: CCc1cc2cc(OC)c(OC)cc2c(Cc2ccccc2)n1 [moxaverine hydrochloride]
- Eye reaction: changes to the iris, clouding of the cornea (albino rabbits): No changes to the iris or clouding of the cornea were observed
- Eye reaction: swelling of the lids, reddening of the conjunctiva (albino rabbits): No rabbit exhibited swelling of the lids or any reddening of the conjunctiva

SMILES: CCc1cc2cc(OC)c(OC)cc2c(Cc2ccccc2)n1 [moxaverine]
- Factor by which concentration in the iris and the ciliary process is less with systemic than with topical application ([1]; 30 minutes): ~6
- Factor by which concentration in the iris and the ciliary process is less with systemic than with topical application ([1]; 120 minutes): ~18
- Concentration in the retina, systemic compared to topical administration ([1]; after 30 minutes): slightly above
- Concentration in the conjunctiva and the cornea after 120 minutes compared to 30 minutes ([1]; ocular application): decreased
- Concentration in the iris and the ciliary process after 120 minutes compared to 30 minutes ([1]; ocular application): almost doubled
- Increase of concentration in the retina after 120 minutes compared to 30 minutes ([1]; ocular application): about 50%
- Amount of active substance in the moist tissue, Mean value [1, 2]: 1.9529E−07 mg of moxaverine/g of moist tissue
- Amount of active substance in the moist tissue [1, 2]: 1.4923E−07 mg of moxaverine/g of moist tissue and 2.6321E−07 mg of moxaverine/g of moist tissue and 1.7533E−07 mg of moxaverine/g of moist tissue
- Amount of active substance in the moist tissue, Mean value ([1]; ocular application, after 30 minutes, Conjunctiva): 6.1602E−04 mg of moxaverine/g of moist tissue
- Amount of active substance in the moist tissue, Mean value ([1]; ocular application, after 30 minutes, Cornea): 1.8538E−03 mg of moxaverine/g of moist tissue
- Amount of active substance in the moist tissue, Mean value ([1]; ocular application, after 30 minutes, Iris/ciliary process): 1.5028E−03 mg of moxaverine/g of moist tissue
- Amount of active substance in the moist tissue, Mean value [1, 3]: 4.9582E−05 mg of moxaverine/g of moist tissue
- Amount of active substance in the moist tissue [1, 3]: 4.6171E−05 mg of moxaverine/g of moist tissue and 6.1860E−05 mg of moxaverine/g of moist tissue and 4.0715E−05 mg of moxaverine/g of moist tissue
- Amount of active substance in the moist tissue, Mean value [1, 4]: 2.0234E−05 mg of moxaverine/g of moist tissue
- Amount of active substance in the moist tissue [1, 4]: 2.3741E−05 mg of moxaverine/g of moist tissue and 1.8259E−05 mg of moxaverine/g of moist tissue and 1.8702E−05 mg of moxaverine/g of moist tissue
- Amount of active substance in the moist tissue, Mean value ([1]; ocular application, after 30 minutes, Retina): 1.0031E−04 mg of moxaverine/g of moist tissue
- Amount of active substance in the moist tissue, Mean value ([1]; ocular application, after 30 minutes, Sclera): 1.0012E−04 mg of moxaverine/g of moist tissue
- Amount of active substance in the moist tissue, Mean value ([1]; ocular application, after 30 minutes, Vitreous humor): 1.1544E−07 mg of moxaverine/g of moist tissue
- Amount of active substance in the moist tissue, Mean value ([1]; ocular application, after 120 minutes, Aqueous humor): 9.3417E−08 mg of moxaverine/g of moist tissue
- Amount of active substance in the moist tissue, Mean value ([1]; ocular application, after 120 minutes, Conjunctiva): 3.7275E−04 mg of moxaverine/g of moist tissue
- Amount of active substance in the moist tissue, Mean value ([1]; ocular application, after 120 minutes, Cornea): 1.1057E−03 mg of moxaverine/g of moist tissue
- Amount of active substance in the moist tissue, Mean value ([1]; ocular application, after 120 minutes, Iris/ciliary process): 2.9849E−03 mg of moxaverine/g of moist tissue
- Amount of active substance in the moist tissue, Mean value ([1]; ocular application, after 120 minutes, Lens): 5.6780E−05 mg of moxaverine/g of moist tissue
- Amount of active substance in the moist tissue, Mean value ([1]; ocular application, after 120 minutes, Plasma): 1.2891E−05 mg of moxaverine/g of moist tissue
- Amount of active substance in the moist tissue, Mean value [1, 5]: 1.4397E−04 mg of moxaverine/g of moist tissue
- Amount of active substance in the moist tissue [1, 5]: 1.8933E−04 mg of moxaverine/g of moist tissue and 1.4755E−04 mg of moxaverine/g of moist tissue and 9.5039E−05 mg of moxaverine/g of moist tissue
- Amount of active substance in the moist tissue, Mean value ([1]; ocular application, after 120 minutes, Sclera): 1.0330E−04 mg of moxaverine/g of moist tissue
- Amount of active substance in the moist tissue, Mean value ([1]; ocular application, after 120 minutes, Vitreous humor): 9.6118E−09 mg of moxaverine/g of moist tissue
- Absorption and biological availability in the eye, topical compared to systemic application ([1]; same application amount): better absorbed by the eye with topical application and exhibits a markedly longer biological availability in the eye
- Concentration in the iris and the ciliary process at 120 minutes as share of the concentration after 30 minutes ([1]; systemic application): about 63%
- Factor of decrease of concentration in the retina from 30 to 120 minutes ([1]; systemic application): 1.6
- Amount of active substance in the moist tissue, Mean value [1, 6]: 2.2632E−09 mg of moxaverine/g of moist tissue
- Amount of active substance in the moist tissue [1, 6]: 2.0291E−09 mg of moxaverine/g of moist tissue and 2.4973E−09 mg of moxaverine/g of moist tissue
- Amount of active substance in the moist tissue, Mean value ([1]; systemic application (intravenous), after 30 minutes, Conjunctiva): 2.4278E−05 mg of moxaverine/g of moist tissue
- Amount of active substance in the moist tissue, Mean value ([1]; systemic application (intravenous), after 30 minutes, Cornea): 8.1549E−06 mg of moxaverine/g of moist tissue
- Amount of active substance in the moist tissue, Mean value [1, 7]: 2.5186E−04 mg of moxaverine/g of moist tissue
- Amount of active substance in the moist tissue [1, 7]: 2.2898E−04 mg of moxaverine/g of moist tissue and 2.7473E−04 mg of moxaverine/g of moist tissue
- Amount of active substance in the moist tissue, Mean value [1, 8]: 1.2813E−06 mg of moxaverine/g of moist tissue
- Amount of active substance in the moist tissue [1, 8]: 9.5659E−07 mg of moxaverine/g of moist tissue and 1.6061E−06 mg of moxaverine/g of moist tissue
- Amount of active substance in the moist tissue, Mean value [1, 9]: 3.4421E−05 mg of moxaverine/g of moist tissue
- Amount of active substance in the moist tissue [1, 9]: 2.8375E−05 mg of moxaverine/g of moist tissue and 4.9032E−05 mg of moxaverine/g of moist tissue and 2.5855E−05 mg of moxaverine/g of moist tissue
- Amount of active substance in the moist tissue, Mean value [1, 10]: 1.3046E−04 mg of moxaverine/g of moist tissue
- Amount of active substance in the moist tissue [1, 10]: 1.0666E−04 mg of moxaverine/g of moist tissue and 1.5425E−04 mg of moxaverine/g of moist tissue
- Amount of active substance in the moist tissue, Mean value ([1]; systemic application (intravenous), after 30 minutes, Sclera): 3.3698E−05 mg of moxaverine/g of moist tissue
- Amount of active substance in the moist tissue, Mean value [1, 11]: 2.0811E−09 mg of moxaverine/g of moist tissue
- Amount of active substance in the moist tissue [1, 11]: 2.6534E−09 mg of moxaverine/g of moist tissue and 1.5088E−09 mg of moxaverine/g of moist tissue
- Amount of active substance in the moist tissue, Mean value [1, 12]: 1.9944E−09 mg of moxaverine/g of moist tissue
- Amount of active substance in the moist tissue [1, 12]: 2.3412E−09 mg of moxaverine/g of moist tissue and 1.8210E−09 mg of moxaverine/g of moist tissue
- Amount of active substance in the moist tissue, Mean value [1, 13]: 2.2936E−05 mg of moxaverine/g of moist tissue
- Amount of active substance in the moist tissue [1, 13]: 2.7539E−05 mg of moxaverine/g of moist tissue and 1.5261E−05 mg of moxaverine/g of moist tissue and 2.6009E−05 mg of moxaverine/g of moist tissue
- Amount of active substance in the moist tissue, Mean value ([1]; systemic application (intravenous), after 120 minutes, Cornea): 7.6083E−06 mg of moxaverine/g of moist tissue
- Amount of active substance in the moist tissue, Mean value [1, 14]: 1.5907E−04 mg of moxaverine/g of moist tissue
- Amount of active substance in the moist tissue [1, 14]: 1.2211E−04 mg of moxaverine/g of moist tissue and 1.6708E−04 mg of moxaverine/g of moist tissue and 1.8802E−04 mg of moxaverine/g of moist tissue
- Amount of active substance in the moist tissue, Mean value [1, 15]: 1.5477E−06 mg of moxaverine/g of moist tissue
- Amount of active substance in the moist tissue [1, 15]: 1.3706E−06 mg of moxaverine/g of moist tissue and 2.0870E−06 mg of moxaverine/g of moist tissue and 1.1854E−06 mg of moxaverine/g of moist tissue
- Amount of active substance in the moist tissue, Mean value [1, 16]: 2.2620E−05 mg of moxaverine/g of moist tissue
- Amount of active substance in the moist tissue [1, 16]: 2.4420E−05 mg of moxaverine/g of moist tissue and 2.1190E−05 mg of moxaverine/g of moist tissue and 2.2250E−05 mg of moxaverine/g of moist tissue
- Amount of active substance in the moist tissue, Mean value [1, 17]: 7.7330E−05 mg of moxaverine/g of moist tissue
- Amount of active substance in the moist tissue [1, 17]: 9.5067E−05 mg of moxaverine/g of moist tissue and 8.3068E−05 mg of moxaverine/g of moist tissue and 5.3855E−05 mg of moxaverine/g of moist tissue
- Amount of active substance in the moist tissue, Mean value [1, 18]: 1.3993E−05 mg of moxaverine/g of moist tissue
- Amount of active substance in the moist tissue [1, 18]: 1.4230E−05 mg of moxaverine/g of moist tissue and 1.1476E−05 mg of moxaverine/g of moist tissue and 1.6272E−05 mg of moxaverine/g of moist tissue
- Amount of active substance in the moist tissue, Mean value [1, 19]: 1.2851E−09 mg of moxaverine/g of moist tissue
- Amount of active substance in the moist tissue [1, 19]: 1.5608E−09 mg of moxaverine/g of moist tissue and 9.6772E−10 mg of moxaverine/g of moist tissue and 1.3267E−09 mg of moxaverine/g of moist tissue
- Absorption by the eye after topical application to the surface ([1]; topical application): very well absorbed by the eye
- Factor of increase of concentration in the iris and the ciliary process from 30 minutes to 120 minutes ([1]; topical application): ~2
- Factor of increase of concentration in the retina from 30 to 120 minutes ([1]; topical application): 1.4

— patent publication US20060058345A1, “Use of papaverine-like vasodilator and pharmaceutical composition” (Ursapharm Arzneimittel GmbH & Co KG, priority 2002, published 2006)
